Each structure is given as a SMILES string.

Four molecules from US20120264784A1, “METHODS OF TREATING ELEVATIONS IN MTOR SIGNALING” (priority 2009, published 2012) can be followed below.

Assay [1] has as its system area CA1 of hippocampal slices. In words: DHPG induced mGluR-LTD, field EPSP recordings in acute hippocampal slices. Also noted: species or system mice. How it is done: Acute hippocampal slices were prepared from P25-30 animals in ice-cold dissection buffer containing (in mM): NaCl 87, Sucrose 75, KCl 2.5, NaH2PO4 1.25, NaHCO3 25, CaCl2 0.5, MgSO4 7, Ascorbic acid 1.3, and D-glucose 10 (saturated with 95% O2/5% CO2). Immediately following slicing the CA3 region was removed. Slices were recovered in artificial cerebrospinal fluid (ACSF) containing (in mM): NaCl 124, KCl 5, NaH2PO4 1.23, NaHCO3 26, CaCl2 2, MgCl2 1 and D-glucose 10 (saturated with 95% O2/5% CO2) at 32.5° C. for about >3 hours prior to recording.
(§1) Field recordings were performed in a submersion chamber, perfused with ACSF (about 2-3 ml/min) at 30° C. Field EPSPs (fEPSPs) were recorded in CA1 stratum radiatum with extracellular electrodes filled with ACSF. Baseline responses were evoked by stimulation of the Schaffer collaterals at 0.033 Hz with a 2-contact cluster electrode (FHC) using about a 0.2 ms stimulus yielding about 40-60% of the maximal response. fEPSP recordings were filtered at about 0.1 Hz-1 kHz, digitized at 10 kHz, and analyzed using pClamp9 (Axon Instruments). The initial slope of the response was used to assess changes in synaptic strength. Data were normalized to the baseline response and are presented as group means±SEM. LTD was measured by comparing the average response about 55-60 minutes post DHPG application to the average of the last 5 minutes of baseline.
(§2) Input output function was examined by stimulating slices with incrementally increasing current (about 20, about 40, about 80, about 120, about 200, about 300 μA) and recording the fEPSP response. Paired pulse facilitation was induced by applying two pulses at different interstimulus intervals (about 10, about 20, about 50, about 100, about 200, about 300, about 500 ms). Facilitation was measured by the ratio of the fEPSP slope of stimulus 2 to stimulus 1. NMDAR-dependent LTD was induced by delivering 900 test pulses at 1 Hz. mGluR-LTD was induced by applying R, S-Dihydroxyphenylglycine (R,S-DHPG, 50 μM) or S-Dihydroxyphenylglycine (S-DHPG, 25 μM) for about 5 minutes, the effects of which were followed for 60 minutes following treatment. In some experiments slices were incubated with the protein synthesis inhibitor cycloheximide (60 μM) for 30 minutes as follows: about 20 minutes during baseline recording, about 5 minutes during DHPG application and about 5 minutes post DHPG application.
For mGluR PAM experiments, slices were pretreated with CDPPB (10 μM) or DMSO control for about 30 minutes in same manner as above, either in the presence of cycloheximide or control ACSF. For rapamycin experiments, slices were pretreated with rapamycin (20 nM) or DMSO control, with or without cycloheximide, for at least 30 minutes prior to DHPG application and throughout the entire experiment.

Assay [2] has as its system area CA1 of hippocampal slices. In words: Paired pulse facilitation (presynaptic LTD) in acute hippocampal slices. Also noted: species or system mice. The conditions noted are these: for PPF (ratio of fEPSP slope of stimulus 2 to stimulus 1): 50 ms inter-stimulus interval, 60 minutes post DHPG (FIG. 3D). How it is done:
as §1, §2

For assay [3], the system named is wildtype and Tsc2^+/− mice. In words: Context fear-conditioning (context discrimination). It is filed as in vivo. The conditions noted are these: for effect on context discrimination (in words): 10 mg/kg i.p. 30 minutes prior to training; for percentage of time spent freezing: single injection 10 mg/kg i.p. 30 minutes prior to training, tested 24 hours later. How it is done: Context fear-conditioning experiments were employed to assess improvements in cognitive processing following administration of a composition that activates Group I mGluR signaling, such as by administration of mGluR5PAMs. Context fear-conditioning was performed using a modification of a previously described procedure (Ehninger, D., et al., Nat Med 14, 843-8 (2008). Wildtype and Tsc2^+/− mice (8-12 weeks old) are habituated to the testing room and experimenter for 3 days prior to training On the day of training, mice is placed in the training context and delivered one 0.80 mA shocks (2 sec). The mice were allowed about 3 minutes to explore context before conditioning and were removed about 15 sec after the shock was given and returned to home cage. Conditioned fear response was assessed 24 hours later by a trained observer measuring the percentage of time spent freezing during the test period (about 3 min session). To determine context specificity of the conditioned response, mice trained at the same time were separated into two groups: one group was tested in the same training context and the other tested in a novel context. This novel context was created by varying: distal cues, odor, floor material, and lighting of the testing apparatus. For rescue experiments, animals received a single injection of CDPPB (10 mg/kg, i.p.) about 30 minutes prior to training session.
Cognitive impairments in the Tsc2^+/− mice were improved by treating the animals with the mTORC1 inhibitor rapamycin (Ehninger, D., et al., Nat. Med. 14: 843-848 (2008)). A robust phenotype was reported to be an impairment in the ability of the Tsc2^+/− mice to distinguish between familiar and novel contexts in a fear conditioning paradigm. The advantage of this paradigm is the learning occurs in one trial, making it amenable to acute drug treatment, and the memory is hippocampus-dependent. The mice are first exposed to a distinctive context in which they receive an aversive foot shock. The next day, context discrimination is tested by dividing the animals into two groups, one placed in the familiar context associated with the shock, and the other placed in a novel context (FIG. 6A). Context discrimination is assessed by measuring the time the animals express fear by freezing in each context.

For `CO[C@H]1C[C@@H]2CC[C@@H](C)[C@@](O)(O2)C(=O)C(=O)N2CCCC[C@H]2C(=O)O[C@H]([C@H](C)C[C@@H]2CC[C@@H](O)[C@H](OC)C2)CC(=O)[C@H](C)/C=C(\C)[C@@H](O)[C@@H](OC)C(=O)[C@H](C)C[C@H](C)/C=C/C=C/C=C/1C` [RAP, rapamycin], the “DHPG induced LTD (fEPSP slope normalized to baseline)” value is 75.3±3% in assay [1] (slices from Tsc2^+/− mice, pretreatment with rapamycin 20 nM (FIG. 5B)); 89.3±2.4% in assay [1] (slices from Tsc2^+/− mice, rapamycin 20 nM with cycloheximide (FIG. 5C)); 73.0% in assay [1] (slices from wildtype animals, pretreatment with rapamycin 20 nM (FIG. 5A)). Also, the “effect on DHPG induced LTD (in words)” value in assay [1] (slices from WT mice) was “no effect”.
Take `C[C@@H]1C[C@@H]([C@H](O)CC2CC(=O)NC(=O)C2)C(=O)[C@@H](C)C1` [CHX, cycloheximide]: the entries for the “effect on DHPG induced LTD (in words)” value in assay [1] (slices from Tsc2^+/− mice) and in assay [1] (slices from WT mice) were “no effect on LTD” and “reliably reduced”, respectively. Besides, the “DHPG induced LTD (fEPSP slope normalized to baseline)” value in assay [1] (slices from Tsc2^+/− mice, cycloheximide 60 μM (FIG. 3C)) was determined as 83.5±2.1%; in assay [1] (slices from WT mice, pretreatment with cycloheximide 60 μM (FIG. 3A)), 85.6±3.4%. Moreover, the “PPF (ratio of fEPSP slope of stimulus 2 to stimulus 1)” value stood at 1.62±0.04 in assay [2] (Tsc2^+/− slices, DHPG+CHX) and 1.58±0.05 in assay [2] (WT slices, DHPG+CHX). Moreover, the “effect on changes in PPF following DHPG (in words)” value in assay [2] (WT slices, cycloheximide 60 μM (FIG. 3D)) was “not inhibited”.
Regarding `N#Cc1cccc(C(=O)Nc2cc(-c3ccccc3)nn2-c2ccccc2)c1` [CDPPB, 3-cyano-N-(1,3-diphenyl-1H-pyrazol-5-yl)benzamide], the “effect on DHPG induced LTD (in words)” value in assay [1] (slices from Tsc2^+/− mice) was “restored the magnitude of mGluR-LTD in Tsc2^+/− mice to WT levels”. In addition, the “DHPG induced LTD (fEPSP slope normalized to baseline)” value is given as 84.8±1.8% in assay [1] (slices from Tsc2^+/− mice, CDPPB 10 μM co-applied with cycloheximide (FIG. 5E)) and 72.7±4.4% in assay [1] (slices from Tsc2^+/− mice, pretreatment with CDPPB 10 μM (FIG. 5D)). In assay [1] (slices from Tsc2^+/− mice, with cycloheximide), the “effect on DHPG induced LTD in the presence of cycloheximide (in words)” value was “completely eliminated by cycloheximide”. The “effect on context discrimination (in words)” value in assay [3] (Tsc2^+/− mice) is on record as “sufficient to correct the deficit in context discrimination”; in assay [3] (WT mice), “no effect”. Also, the “percentage of time spent freezing” value was 44.5±4.3% in assay [3] (Tsc2^+/− mice, familiar context); 31.6±3% in assay [3] (Tsc2^+/− mice, novel context); 42.3±3.7% in assay [3] (WT mice, familiar context); 26.4±3.6% in assay [3] (WT mice, novel context).
`N[C@@H](C(=O)O)c1cc(O)cc(O)c1` (racemic) [DHPG, (R,S)-3,5-dihydroxyphenylglycine]: the “DHPG induced LTD (fEPSP slope normalized to baseline)” value in assay [1] (slices from Tsc2^+/− mice, DHPG alone, 5 min, 55-60 min post DHPG (FIG. 3B)) is 85.2±2.7%; in assay [1] (slices from WT mice, DHPG alone, 5 min, 55-60 min post DHPG (FIG. 3B)) it was 74.1±2.0%. Also, the results for the “PPF (ratio of fEPSP slope of stimulus 2 to stimulus 1)” value in assay [2] (Tsc2^+/− slices) and in assay [2] (WT slices) were 1.63±0.02 and 1.59±0.04, respectively.
